Assay [1] addresses T1, STAT5b SH2 domain (Homo sapiens, UniProt P51692).
T1 sequence (P51692 1-787): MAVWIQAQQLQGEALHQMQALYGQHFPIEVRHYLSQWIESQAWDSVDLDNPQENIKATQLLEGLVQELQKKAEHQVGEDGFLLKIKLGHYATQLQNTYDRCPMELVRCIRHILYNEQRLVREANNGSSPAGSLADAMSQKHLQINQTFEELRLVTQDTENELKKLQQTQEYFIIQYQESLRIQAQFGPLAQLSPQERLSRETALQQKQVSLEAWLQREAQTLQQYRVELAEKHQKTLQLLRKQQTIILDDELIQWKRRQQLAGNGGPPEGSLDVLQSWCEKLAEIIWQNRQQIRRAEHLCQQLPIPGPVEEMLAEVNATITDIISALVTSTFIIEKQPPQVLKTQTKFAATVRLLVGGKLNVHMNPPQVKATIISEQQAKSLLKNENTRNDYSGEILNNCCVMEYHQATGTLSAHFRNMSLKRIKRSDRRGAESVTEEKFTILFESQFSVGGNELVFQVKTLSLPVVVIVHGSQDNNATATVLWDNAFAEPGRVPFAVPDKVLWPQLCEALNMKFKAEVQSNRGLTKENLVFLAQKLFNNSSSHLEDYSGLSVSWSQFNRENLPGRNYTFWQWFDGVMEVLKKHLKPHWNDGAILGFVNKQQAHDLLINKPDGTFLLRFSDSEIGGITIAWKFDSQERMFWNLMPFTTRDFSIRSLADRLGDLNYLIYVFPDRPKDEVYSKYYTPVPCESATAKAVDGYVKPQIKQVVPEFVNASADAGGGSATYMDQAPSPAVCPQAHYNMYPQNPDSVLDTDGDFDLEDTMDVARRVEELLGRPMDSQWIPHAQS
The experiment in a line: Fluorescence polarization assay, STAT5b SH2 domain. The assay is classed as binding. The following applies: for Ki: converted from IC50 using the published equation, n = 3; for Ki / IC50: mean ± s.d.; for IC50: fluorescence polarization, three independent experiments. For orientation: Fluorescence polarisation rises when a labelled molecule tumbles more slowly, as on binding a larger partner.

Assay [2] deals with T2, STAT5a SH2 domain (Homo sapiens, UniProt P42229).
T2 sequence (P42229 1-794): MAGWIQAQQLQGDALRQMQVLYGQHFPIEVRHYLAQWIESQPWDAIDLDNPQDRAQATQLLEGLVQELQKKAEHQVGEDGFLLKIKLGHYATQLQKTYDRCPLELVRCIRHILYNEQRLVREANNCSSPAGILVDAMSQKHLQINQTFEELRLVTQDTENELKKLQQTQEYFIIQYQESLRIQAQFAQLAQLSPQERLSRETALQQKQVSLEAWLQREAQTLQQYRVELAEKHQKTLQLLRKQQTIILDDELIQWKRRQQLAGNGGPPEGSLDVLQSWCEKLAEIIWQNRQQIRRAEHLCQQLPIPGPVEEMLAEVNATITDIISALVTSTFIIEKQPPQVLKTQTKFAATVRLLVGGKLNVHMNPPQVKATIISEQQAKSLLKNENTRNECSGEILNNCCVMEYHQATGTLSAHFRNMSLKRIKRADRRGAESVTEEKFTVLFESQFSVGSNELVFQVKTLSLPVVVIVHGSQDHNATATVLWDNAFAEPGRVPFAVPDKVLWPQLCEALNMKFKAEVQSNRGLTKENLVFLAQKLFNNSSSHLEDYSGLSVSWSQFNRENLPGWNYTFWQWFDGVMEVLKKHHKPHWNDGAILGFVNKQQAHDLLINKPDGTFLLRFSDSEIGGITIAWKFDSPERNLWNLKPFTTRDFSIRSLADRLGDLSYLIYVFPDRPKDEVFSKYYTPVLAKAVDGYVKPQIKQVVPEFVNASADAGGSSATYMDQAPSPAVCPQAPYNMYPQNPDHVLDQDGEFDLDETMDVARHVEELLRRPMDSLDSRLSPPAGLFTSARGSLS
The experiment in a line: Fluorescence polarization assay, STAT5a SH2 domain. The assay is classed as binding. The note with it: mean ± s.d.; for Ki: converted from IC50 using the published equation, n = 3; for IC50: fluorescence polarization, three independent experiments.

Assay [3] deals with STAT5b-GFP. The experiment in a line: STAT5b Tyr699 phosphorylation in STAT5b-GFP-transfected K562 cells (Western blot). The note with it: STAT5b-GFP-transfected K562 cells, 4 h, result in words. The assay is classed as cell-based, human. For orientation: Immunoblotting shows a protein as a band on a membrane.
Assay [4] has as its system STAT5a-GFP. The experiment in a line: STAT5a Tyr694 phosphorylation in STAT5a-GFP-transfected K562 cells (Western blot). The assay is classed as cell-based, human. The note with it: 4 h, result in words.
For assay [5], the target named is T3, STAT5b-GFP (Homo sapiens, UniProt P51692).
T3 sequence (P51692 1-787): T1 sequence (P51692 1-787)
The experiment in a line: STAT5b Tyr699 phosphorylation in STAT5b-GFP-transfected K562 cells (Western blot). The class given is cell-based. The following applies: STAT5b-GFP-transfected K562 cells.

In assay [6] the test system is MDA-MB-231 cells. The experiment in a line: Apoptosis assay (Annexin V / 7-AAD flow cytometry), MDA-MB-231 cells. The class given is cell-based. The following applies: MDA-MB-231 cells (STAT5-independent), 48 h, result in words.
For assay [7], the system named is K562 cells. The experiment in a line: Apoptosis assay (Annexin V / 7-AAD flow cytometry), K562 cells. The assay is classed as cell-based, human. The following applies: untransfected K562 cells, 48 h, result in words. In general terms: In flow cytometry, cells or beads pass a laser one at a time.
In assay [8] the test system is endogenous STAT5. The experiment in a line: Tyrosine phosphorylation of endogenous total STAT5 in STAT5a/b-GFP-transfected K562 cells. The class given is cell-based, human. The note with it: result in words.

Experimental findings from article PMC5429769, “Rational development of Stafib-2: a selective, nanomolar inhibitor of the transcription factor STAT5b” (Scientific Reports, 2017) are described below.

SMILES strings stand for the structures. Entries after “also recorded” stand apart in the source; their conditions may differ.

Usually Ki stands for a dissociation constant, usually derived from enzyme kinetics or from competition with a known ligand. Higher therefore signals a looser hold on the target. Broadly, the IC50 is the concentration that inhibits the measured activity by half. A lower IC50 goes with higher potency. On to `O=C(COc1ccc2cc(C(=O)Nc3ccc(Oc4ccccc4)cc3)ccc2c1)NCc1ccc(OP(=O)(O)O)c(OP(=O)(O)O)c1` [compound 3], for which the “fold less active than 2” value in assay [1] (STAT5b Ki relative to 2) was determined as 2 fold. In assay [1], the Ki came out at 93 ± 3 nM and the IC50 amounted to 190 ± 10 nM. Moreover, in assay [2], the Ki was found to be 2900 ± 100 nM and half-maximal inhibition (IC50) required 5800 ± 300 nM.
As to `CC(C)(C)C(=O)OCOP(=O)(Cc1ccccc1CP(=O)(OCOC(=O)C(C)(C)C)OCOC(=O)C(C)(C)C)OCOC(=O)C(C)(C)C` [compound 9, reference compound], in assay [3], the “inhibition of STAT5b phosphorylation” value is recorded as “lack of inhibition”. Besides, the “inhibition of STAT5a phosphorylation” value in assay [4] is on record as “lack of inhibition”.
Turning to `CC(C)(C)C(=O)OCOP(=O)(OCOC(=O)C(C)(C)C)Oc1ccc(CNC(=O)COc2ccc(C(=O)Nc3ccc(Oc4ccccc4)cc3)cc2)cc1OP(=O)(OCOC(=O)C(C)(C)C)OCOC(=O)C(C)(C)C` [compound 8, ((((4-((2-(4-((4-Phenoxyphenyl)carbamoyl)phenoxy)acetamido)methyl)-1,2-phenylene)bis(oxy))bis(oxo-l5-phosphanetriyl))tetrakis(oxy))tetrakis(methylene) tetrakis(2,2-dimethylpropanoate)], the “fold more active against STAT5b phosphorylation than the pivaloyloxymethylesters of 2 and of Capstafin” value in assay [5] came to 2.5 fold. Moreover, the “inhibition of STAT5b phosphorylation” value in assay [5] (4 h, result in words) was “Dose-dependent inhibition”. The entries for the “inhibition of STAT5a phosphorylation” value in assay [4] and in assay [4] (listed as Pomstafib-2) were “not significantly reduced; also recorded: not inhibited” and “without significantly affecting”, respectively. Also, the apoptotic rate result in assay [6] is reported as “does not increase; also recorded: not increased”; in assay [7], “dose-dependent increase; also recorded: increased”. Moreover, the “inhibition of phosphorylation of endogenous STAT5” value in assay [8] is listed as “inhibited”.
In assay [1], `O=C(COc1ccc(C(=O)Nc2ccccc2)cc1)NCc1ccc(OP(=O)(O)O)c(OP(=O)(O)O)c1` [compound 5] displayed a Ki of 110 ± 10 nM and a concentration for half-maximal inhibition (IC50) of 280 ± 10 nM. In assay [2], this compound gave a Ki of 4800 ± 100 nM and an IC50 of 9700 ± 300 nM.
As to `O=C(COc1ccc(C(=O)Nc2ccc(Oc3ccccc3)cc2)cc1)NCc1ccc(O)c(O)c1` [compound 7], the STAT5b inhibition entry in assay [1] (at 80 µM) was “lack of activity; also recorded: no inhibition at 80 µM”.
